Source: patent publication US20100267561A1, “HERBICIDAL PYRIDAZINONE DERIVATIVES” (priority 2007, published 2010)

Experiments:
Assay in all cases: Test E pre-/postemergence plant response
Assay type in all cases: in vivo
[1] = test system: naked crabgrass (Digitaria nuda); conditions: scale 0 to 100
Description: (§1) Seeds of plant species selected from bermudagrass (Cynodon dactylon), Surinam grass (Brachiaria decumbens), large crabgrass (Digitaria sanguinalis), green foxtail (Setaria viridis), goosegrass (Eleusine indica), johnsongrass (Sorghum halepense), kochia (Kochia scoparia), pitted morningglory (Ipomoea lacunosa), purple nutsedge (Cyperus rotundus), common ragweed (Ambrosia elation), black mustard (Brassica nigra), guineagrass (Panicum maximum), dallisgrass (Paspalum dilatatum), barnyardgrass (Echinochloa crus-galli), southern (S.) sandbur (Cenchrus echinatus), common sowthistle (Sonchus oleraceous), prickly sida (Sida spinosa), Italian ryegrass (Lolium multiflorum), common purslane (Portulaca oleracea), broadleaf signalgrass (Brachiaria platyphylla), common groundsel (Senecio vulgaris), common chickweed (Stellaria media), Virginia (V.) dayflower (Commelina virginica), tropical (T.) spiderwort (Commelina benghalensis), annual bluegrass (Poa annua), naked crabgrass (Digitaria nuda), itchgrass (Rottboellia cochinchinensis), quackgrass (Elytrigia repens), Canada horseweed (Conyza canadensis), field bindweed (Convolvulus arvensis), spanishneedles (Bidens bipinnata), common mallow (Malva sylvestris) and Russian thistle (Salsola kali) were planted and treated preemergence with test chemicals formulated in a non-phytotoxic solvent mixture which included a surfactant. At the same time, plants selected from these weed species were treated with postemergence applications of some of the test chemicals formulated in the same manner. Plants ranged in height from 2 to 18 cm (1- to 4-leaf stage) for postemergence treatments.
(§2) Treated plants and controls were maintained in a greenhouse for 14 to 21 days, after which time all species were compared to controls and visually evaluated. Plant response ratings, summarized in Table E, are based on a scale of 0 to 100 where 0 is no effect and 100 is complete control. A dash (-) response means no test result.

[2] = test system: Italian ryegrass (Lolium multiflorum); conditions: scale 0 to 100
Description: as §1, §2

[3] = test system: barnyardgrass (Echinochloa crus-galli)
Description: as §1, §2

[4] = test system: annual bluegrass (Poa annua); conditions: scale 0 to 100
Description: as §1, §2

[5] = test system: bermudagrass (Cynodon dactylon); conditions: scale 0 to 100
Description: as §1, §2

[6] = test system: itchgrass (Rottboellia cochinchinensis); conditions: scale 0 to 100
Description: as §1, §2

[7] = test system: goosegrass (Eleusine indica); conditions: scale 0 to 100
Description: as §1, §2

[8] = test system: common chickweed (Stellaria media); conditions: Postemergence, scale 0 to 100
Description: as §1, §2

[9] = test system: guineagrass (Panicum maximum); conditions: scale 0 to 100
Description: as §1, §2

[10] = test system: black mustard (Brassica nigra); conditions: scale 0 to 100
Description: as §1, §2

[11] = test system: pitted morningglory (Ipomoea lacunosa); conditions: scale 0 to 100
Description: as §1, §2

CCc1cc(-c2ccc(C(F)(F)F)cc2)nn1-c1c(O)cnn(C)c1=O [Compound 11, 4-[5-ethyl-3-[4-(trifluoromethyl)phenyl]-1H-pyrazol-1-yl]-5-hydroxy-2-methyl-3(2H)-pyridazinone]
Plant response rating, Crabgrass, Naked ([1]; 4 g ai/ha, Postemergence): 25 | Plant response rating, Crabgrass, Naked ([1]; 8 g ai/ha, Preemergence): 40 | Plant response rating, Crabgrass, Naked ([1]; 16 g ai/ha, Preemergence): 95 | Plant response rating, Crabgrass, Naked ([1]; 31 g ai/ha, Preemergence): 100 | Plant response rating, Crabgrass, Naked ([1]; Postemergence, 8 g ai/ha): 90 | Plant response rating, Crabgrass, Naked ([1]; Postemergence, 16 g ai/ha): 95 | Plant response rating, Crabgrass, Naked ([1]; Postemergence, 31 g ai/ha): 98 | Plant response rating, Ryegrass, Italian ([2]; 4 g ai/ha, Postemergence): 75 | Plant response rating, Ryegrass, Italian ([2]; 16 g ai/ha, Preemergence): 80 | Plant response rating, Ryegrass, Italian ([2]; 31 g ai/ha, Preemergence): 100 | Plant response rating, Ryegrass, Italian ([2]; Postemergence, 8 g ai/ha): 90 | Plant response rating, Ryegrass, Italian ([2]; Postemergence, 16 g ai/ha): 95 | Plant response rating, Ryegrass, Italian ([2]; Postemergence, 31 g ai/ha): 95 | Plant response rating, Ryegrass, Italian ([2]; Preemergence, 4 g ai/ha): 20 | Plant response rating, Barnyardgrass ([3]; 4 g ai/ha, Postemergence, scale 0 to 100): 90 | Plant response rating, Barnyardgrass ([3]; 8 g ai/ha, Preemergence, scale 0 to 100): 75 | Plant response rating, Barnyardgrass ([3]; 16 g ai/ha, Preemergence, scale 0 to 100): 90 | Plant response rating, Barnyardgrass ([3]; 31 g ai/ha, Preemergence, scale 0 to 100): 98 | Plant response rating, Barnyardgrass ([3]; Postemergence, 8 g ai/ha, scale 0 to 100): 100 | Plant response rating, Barnyardgrass ([3]; Postemergence, 16 g ai/ha, scale 0 to 100): 100 | Plant response rating, Barnyardgrass ([3]; Postemergence, 31 g ai/ha, scale 0 to 100): 100 | Plant response rating, Barnyardgrass ([3]; Preemergence, 4 g ai/ha, scale 0 to 100, 0 no effect, 100 complete control): 0 | Plant response rating, Bluegrass ([4]; 4 g ai/ha, Postemergence): 0 | Plant response rating, Bluegrass ([4]; 8 g ai/ha, Preemergence): 0 | Plant response rating, Bluegrass ([4]; 16 g ai/ha, Preemergence): 0 | Plant response rating, Bluegrass ([4]; 31 g ai/ha, Preemergence): 0 | Plant response rating, Bluegrass ([4]; Postemergence, 8 g ai/ha): 0 | Plant response rating, Bluegrass ([4]; Postemergence, 16 g ai/ha): 0 | Plant response rating, Bluegrass ([4]; Postemergence, 31 g ai/ha): 0 | Plant response rating, Bluegrass ([4]; Preemergence, 4 g ai/ha): 0 | Plant response rating, Bermudagrass ([5]; 4 g ai/ha, Postemergence): 10 | Plant response rating, Bermudagrass ([5]; 8 g ai/ha, Preemergence): 25 | Plant response rating, Bermudagrass ([5]; 16 g ai/ha, Preemergence): 40 | Plant response rating, Bermudagrass ([5]; 31 g ai/ha, Preemergence): 100 | Plant response rating, Bermudagrass ([5]; Postemergence, 8 g ai/ha): 35 | Plant response rating, Bermudagrass ([5]; Postemergence, 16 g ai/ha): 80 | Plant response rating, Bermudagrass ([5]; Postemergence, 31 g ai/ha): 95 | Plant response rating, Bermudagrass ([5]; Preemergence, 4 g ai/ha): 15 | Plant response rating, Itchgrass ([6]; 4 g ai/ha, Postemergence): 0 | Plant response rating, Itchgrass ([6]; 16 g ai/ha, Preemergence): 65 | Plant response rating, Itchgrass ([6]; 31 g ai/ha, Preemergence): 80 | Plant response rating, Itchgrass ([6]; Postemergence, 8 g ai/ha): 75 | Plant response rating, Itchgrass ([6]; Postemergence, 16 g ai/ha): 85 | Plant response rating, Itchgrass ([6]; Postemergence, 31 g ai/ha): 98 | Plant response rating, Itchgrass ([6]; Preemergence, 4 g ai/ha): 0 | Plant response rating, Goosegrass ([7]; 4 g ai/ha, Postemergence): 10 | Plant response rating, Goosegrass ([7]; 8 g ai/ha, Preemergence): 25 | Plant response rating, Goosegrass ([7]; 16 g ai/ha, Preemergence): 50 | Plant response rating, Goosegrass ([7]; 31 g ai/ha, Preemergence): 90 | Plant response rating, Goosegrass ([7]; Postemergence, 8 g ai/ha): 35 | Plant response rating, Goosegrass ([7]; Postemergence, 16 g ai/ha): 80 | Plant response rating, Goosegrass ([7]; Postemergence, 31 g ai/ha): 85 | Plant response rating, Goosegrass ([7]; Preemergence, 4 g ai/ha): 25 | Plant response rating, Chickweed ([8]; 4 g ai/ha): 0 | Plant response rating, Chickweed ([8]; 8 g ai/ha): 0 | Plant response rating, Chickweed ([8]; 16 g ai/ha): 0 | Plant response rating, Chickweed ([8]; 31 g ai/ha): 0 | Plant response rating, Guineagrass ([9]; 4 g ai/ha, Postemergence): 90 | Plant response rating, Guineagrass ([9]; 16 g ai/ha, Preemergence): 98 | Plant response rating, Guineagrass ([9]; 31 g ai/ha, Preemergence): 98 | Plant response rating, Guineagrass ([9]; Postemergence, 8 g ai/ha): 95 | Plant response rating, Guineagrass ([9]; Postemergence, 16 g ai/ha): 98 | Plant response rating, Guineagrass ([9]; Postemergence, 31 g ai/ha): 98 | Plant response rating, Guineagrass ([9]; Preemergence, 4 g ai/ha): 0 | Plant response rating, Mustard, Black ([10]; 4 g ai/ha, Postemergence): 0 | Plant response rating, Mustard, Black ([10]; 8 g ai/ha, Preemergence): 0 | Plant response rating, Mustard, Black ([10]; 16 g ai/ha, Preemergence): 0 | Plant response rating, Mustard, Black ([10]; 31 g ai/ha, Preemergence): 0 | Plant response rating, Mustard, Black ([10]; Postemergence, 8 g ai/ha): 0 | Plant response rating, Mustard, Black ([10]; Postemergence, 16 g ai/ha): 0 | Plant response rating, Mustard, Black ([10]; Postemergence, 31 g ai/ha): 0 | Plant response rating, Mustard, Black ([10]; Preemergence, 4 g ai/ha): 0 | Plant response rating, Morningglory ([11]; 4 g ai/ha, Postemergence): 0 | Plant response rating, Morningglory ([11]; 16 g ai/ha, Preemergence): 0 | Plant response rating, Morningglory ([11]; 31 g ai/ha, Preemergence): 0 | Plant response rating, Morningglory ([11]; Postemergence, 8 g ai/ha): 0 | Plant response rating, Morningglory ([11]; Postemergence, 16 g ai/ha): 0 | Plant response rating, Morningglory ([11]; Postemergence, 31 g ai/ha): 0 | Plant response rating, Morningglory ([11]; Preemergence, 4 g ai/ha): 0
